# Measured values reported in patent publication US4420481A, “Use of piperazine compounds as immunopotentiating agents” (Mitsuitoatsu Chemicals Inc., priority 1980, dated 1983).
# Counter-ions that a name gives are not always drawn.
# Experiments:
# [1] = system: Sarcoma 180; assay: Test 4: Test of Antitumor Effect to Sarcoma 180 by Oral Administration; type: in vivo, ICR female mice; conditions: for D: average diameter of tumor: 100 mg/Kg oral once a day, 10 days
# Description: To the control group, a physiological saline solution was similarly administered. The dose of the compound was 100 mg per Kg of the body weight. The diameter D (mm) of the tumor was measured, and the average value and the number N of the living mice were determined to obtain results shown in Table 4.
# [2] = system: delayed hypersensitivity; assay: Test 1: Test of Reinforcement of Delayed Hypersensitivity; type: in vivo, ICR male mice; conditions: mouse
# Description: Various test systems using animals have been proposed for determining the immunopotensiative action. Results of the test of reinforcement of the delayed hypersensitivity, which is a typical test among these tests, will now be described.
# This system was used for the test of reinforcement of the delayed hypersensitivity.
# One groups of eight ICR male mice, each having a body weight of about 30 g, were used for the test.
# Sensitization was effected by coating a 7% solution of picryl chloride in a 4/1 mixture of olive oil and acetone on the shaved abdomen of the mouse.
# Simultaneously with sensitization, a solution or suspension of the compound of the present invention in a 0.2% solution of carboxymethyl cellulose in a physiological saline solution was orally administered to the mouse at a dose of 50 mg per Kg of the body weight. To the control group, a 0.2% carboxymethyl cellulose solution in a physiological saline solution was similarly administered.
# The delayed hypersensitivity was challenged 7 days after sensitization by gripping the ear of the mouse by a forceps wrapped with a felt impregnated with a 1% solution of picryl chloride in olive oil and coating the ear with the solution. The thickness of the ear was measured before challenging and 24 hours after challenging and the ratio of increase of the thickness (average value of both the ears in eight mice±standard deviation) was obtained as shown in Table 1.
# For comparison, the test was similarly carried out by using Levamisol hydrochloride, and the obtained results are shown in Table 1. F.t tests were carried out. The group in which the test result was significant at a level of P<0.05 was marked by *, and the group in which the test result was significant at a level of P<0.01 ws marked by **.
# [3] = system: adjuvant arthritis; assay: Test 2: Adjuvant Arthritis Test; type: in vivo, SD male rats; conditions: rat, 5 mg/Kg subcutaneous, 9 times, left hind leg, * P<0.05, ** P<0.01
# [4] = system: EL-4 leukemic cells; assay: Test 3: In-Vitro Test of Inhibition of Growth of Cancer Cell by Macrophage; type: cell-based; conditions: for Take-In Ratio of 3H-thymidine (average value): 8 mg/Kg intraperitoneal to mice, macrophages collected after 4 days, with EL-4 cells, control 80.2
# Description: The results of the test of the action of the effective ingredient of the present invention on the macrophage will now be described with reference to the following Test 3. More specifically, the separated macrophage and EL-4 leukemic cell were mixed and cultured, and ^3 H-thymidine was added to a culture medium and the quantity of ^3 H-thymidine incorporated into the EL-4 cell was determined to examine the activity of the macrophage. When the macrophage is activated by administration of the effective ingredient of the present invention, inhibition of the growth of EL-4 cell, that is, phagocytosis of the cancer cell by the macrophage, is observed. Accordingly, if the take-in amount of ^3 H-thymidine is measured and this amount is reduced, it is confirmed that the macrophage has been activated. […] The dose was 8 mg per Kg of the body weight. To the control group, a physiological saline solution was similarly administered. After passage of 4 days, exuded abdominal cells were collected and deposited on a plastic Petri dish to collect microphages. Then, 1×10^6 of so obtained macrophages and 1×10^5 of EL-4 leukemic cells of C57 BL/6J mouse were mixed with cultured in an RPM1 1640 culture medium to which 10% of bovine embryo serum was added (at 37° C. in the presence of 5% of CO2) for 24 hours. Then, 0.1μ Ci of ^3 H-thymidine was added and culturing was further conducted for 16 hours. Cells were collected on a filter paper from the culture medium and the amount of ^3 H-thymidine taken in was determined by a liquid scintillation counter. […] For comparison, the test was similarly carried out by using Levamisol hydrochloride. Results
# [5] = system: Sarcoma 180; assay: Test 5: Test of Carcinostatic Effect to Sarcoma 180 by Subcutaneous Administration; type: in vivo, ICR female mice; conditions: 20 mg/Kg subcutaneous
# Description: To the control group, a physiological saline solution was similarly administered. […] The diameter D (mm) of the tumor was measured, and the average value and the number N of the living mice were determined to obtain results shown in Table 4.
# [6] = 50 mg/Kg oral, 24 hours after challenge, * P<0.05, ** P<0.01, control 29.6 ± 1.9
compound,measurement,setting,value
"c1ccc([C@H]2CN3CCSC3=N2)cc1 [Levamisole.hydrochloride, reference compound]",N: number of living mice,"[1]; 0 weeks, 100 mg/Kg oral, control 6",6
same,carcinostatic action (in words),"[1]; 100 mg/Kg oral, repeated",no substantial carcinostatic action was observed
same,D: average diameter of tumor,"[1]; 2 weeks, control 10.6",10.2 mm
same,N: number of living mice,"[1]; 2 weeks, 100 mg/Kg oral, control 6",6
same,D: average diameter of tumor,"[1]; 4 weeks, control 15.2",16.2 mm
same,N: number of living mice,"[1]; 4 weeks, 100 mg/Kg oral, control 6",6
same,D: average diameter of tumor,"[1]; 6 weeks, control 22.4",20.7 mm
same,N: number of living mice,"[1]; 6 weeks, 100 mg/Kg oral, control 6",6
same,D: average diameter of tumor,"[1]; 8 weeks, control 31.5",29.6 mm
same,N: number of living mice,"[1]; 8 weeks, 100 mg/Kg oral, control 5",6
same,D: average diameter of tumor,"[1]; 10 weeks, control 37.6",28.1 mm
same,N: number of living mice,"[1]; 10 weeks, 100 mg/Kg oral, control 1",6
same,Ratio of Increase of Ear Thickness (average value ± Standard Variation),[2]; in vivo,35.6 ± 2.4%
same,Swelling Ratio (average value ± standard variation),"[3]; 15 days, control 84.4 ± 9.0",65.2 ± 5.9%
same,Swelling Ratio (average value ± standard variation),"[3]; 18 days, control 103.2 ± 9.7",69.3 ± 7.1%
same,Swelling Ratio (average value ± standard variation),"[3]; 21 days, control 107.5 ± 13.3",80.7 ± 9.6%
same,activation of macrophage / phagocytosis of cancer cells (in words),[4]; 8 mg/Kg intraperitoneal,hardly exhibits such action
same,inhibition of take-in of 3H-thymidine by EL-4 leukemic cells (in words),[4]; 8 mg/Kg intraperitoneal,does not exhibit such action
same,Take-In Ratio of 3H-thymidine (average value),[4],49.0%
same,N: number of living mice,"[5]; 0 weeks, control 6",6
same,carcinostatic activity (in words),[5],no substantial carcinostatic activity
same,N: number of living mice,"[5]; 2 weeks, control 6",6
same,D: average diameter of tumor,"[5]; 2 weeks, control 10.8",7.7 mm
same,N: number of living mice,"[5]; 4 weeks, control 6",6
same,D: average diameter of tumor,"[5]; 4 weeks, control 16.6",14.8 mm
same,N: number of living mice,"[5]; 6 weeks, control 6",6
same,D: average diameter of tumor,"[5]; 6 weeks, control 20.3",14.4 mm
same,N: number of living mice,"[5]; 8 weeks, control 4",3
same,D: average diameter of tumor,"[5]; 8 weeks, control 31.2",30.2 mm
same,N: number of living mice,"[5]; 10 weeks, control 1",2
same,D: average diameter of tumor,"[5]; 10 weeks, control 40.5",31.6 mm
CN1CCN(C(=O)N2CCCC2)CC1 [drawing 7],Ratio of Increase of Ear Thickness (average value ± Standard Variation),[2]; [6],36.7 ± 2.5%
CN1CCN(C(=O)N2CCCCC2)CC1 [drawing 8],Ratio of Increase of Ear Thickness (average value ± Standard Variation),[2]; [6],43.5 ± 2.8%
O=C(N1CCCCC1)N1CCN(c2ccccc2)CC1 [drawing 9],Ratio of Increase of Ear Thickness (average value ± Standard Variation),[2]; [6],45.0 ± 4.6%
CN1CCN(C(=O)N2CCCC2)CC1 [drawing 10],Swelling Ratio (average value ± standard variation),"[3]; 15 days, control 84.4 ± 9.0",54.6 ± 11.3%
same,Swelling Ratio (average value ± standard variation),"[3]; 18 days, control 103.2 ± 9.7",61.7 ± 13.0%
same,Swelling Ratio (average value ± standard variation),"[3]; 21 days, control 107.5 ± 13.3",73.3 ± 14.6%
CN1CCN(C(=O)N2CCCCC2)CC1 [drawing 11],Swelling Ratio (average value ± standard variation),"[3]; 15 days, control 84.4 ± 9.0",49.4 ± 10.3%
same,Swelling Ratio (average value ± standard variation),"[3]; 18 days, control 103.2 ± 9.7",62.0 ± 12.5%
same,Swelling Ratio (average value ± standard variation),"[3]; 21 days, control 107.5 ± 13.3",68.1 ± 14.0%
O=C(N1CCCCC1)N1CCN(c2ccccc2)CC1 [drawing 12],Swelling Ratio (average value ± standard variation),"[3]; 15 days, control 84.4 ± 9.0",39.5 ± 11.7%
same,Swelling Ratio (average value ± standard variation),"[3]; 18 days, control 103.2 ± 9.7",56.1 ± 10.8%
same,Swelling Ratio (average value ± standard variation),"[3]; 21 days, control 107.5 ± 13.3",74.4 ± 13.9%
CN1CCN(C(=O)N2CCCC2)CC1 [drawing 13],Take-In Ratio of 3H-thymidine (average value),[4],25.7%
